Measured values taken from patent publication US20210403485A1, “PYRAZOLOPYRIMIDINE DERIVATIVE AS SELECTIVE TRK INHIBITOR” (SHANDONG LUYE PHARMACEUTICAL CO., LTD., priority 2018, published 2021).

How the values were obtained:
[1] = biological target: T1, Ba/F3 SLC34A2-ROS1-WT (Homo sapiens, UniProt P08922); assay: Inhibitory activity against cell proliferation (CellTiter-Glo, 72 hours); type: cell-based; conditions: read-out: Half maximal inhibitory concentration IC50 of cells, Ba/F3 SLC34A2-ROS1-WT
T1 construct: fused on or other part: N-terminal part of SLC34A2 as fusion partner (part of the key); O95436 (Sodium-dependent phosphate transport protein 2B)
Procedure, shortened: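 Log-phase Ba/F3 cells (trypan blue viability above 90%) were treated in triplicate with a 9-point, 3-fold compound series. ATP-dependent luminescence was read after CellTiter-Glo addition, and IC50 values came from nonlinear sigmoidal dose-response fits.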

[2] = biological target: T2, BaF3 ETV6-NTRK3-G623R (Homo sapiens, UniProt Q16288, G623R, cells depend on it); assay: as above; type: cell-based; conditions: read-out: Half maximal inhibitory concentration IC50 of cells, BaF3 ETV6-NTRK3-G623R
T2 construct: fused on or other part: N-terminal part of ETV6 (TEL) as fusion partner (part of the key); P41212 (Transcription factor ETV6)
Procedure, shortened: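 Ba/F3 stable fusion lines were seeded at 5000 cells/well (viability >90% by trypan blue) and allowed to settle overnight at 37 °C, 5% CO2. Compounds were then added as a 9-point, 3-fold series from a 10-fold working solution with a top concentration of 10 μM, in triplicate. IC50 values came from nonlinear sigmoidal fits of luminescence.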

[3] = test system: Ba/F3 ETV6-NTRK3 cells; assay: Efficacy test in animals: subcutaneous xenograft, intragastric administration; type: in vivo, nude mice; conditions: for TGI (tumor growth inhibition rate): day of dissection; for Tumor inhibition rate (by tumor weight) / Tumor weight: end of the test
Experimental: (§1) Cells in the logarithmic growth phase were collected and resuspended in serum-free medium to a cell concentration of 2-4×10^7 cells/mL. An equal volume of matrigel was added to the cell suspension to achieve a final cell concentration of 1-2×10^7 cells/mL. 0.2 mL of tumor cell suspension was subcutaneously inoculated at the scapula of each nude mouse with the inoculation amount of 2-4×10^6 cells/mouse to prepare the animal models.

[4] = test system: Ba/F3 ETV6-NTRK3-G623R cells; assay: as above; type: in vivo, nude mice; conditions: for TGI (tumor growth inhibition rate): day of dissection; for Tumor inhibition rate (by tumor weight) / Tumor weight: end of the test
Experimental: as §1

T1 sequence (P08922 whole entry, stated change not applied, the tested form may be a part): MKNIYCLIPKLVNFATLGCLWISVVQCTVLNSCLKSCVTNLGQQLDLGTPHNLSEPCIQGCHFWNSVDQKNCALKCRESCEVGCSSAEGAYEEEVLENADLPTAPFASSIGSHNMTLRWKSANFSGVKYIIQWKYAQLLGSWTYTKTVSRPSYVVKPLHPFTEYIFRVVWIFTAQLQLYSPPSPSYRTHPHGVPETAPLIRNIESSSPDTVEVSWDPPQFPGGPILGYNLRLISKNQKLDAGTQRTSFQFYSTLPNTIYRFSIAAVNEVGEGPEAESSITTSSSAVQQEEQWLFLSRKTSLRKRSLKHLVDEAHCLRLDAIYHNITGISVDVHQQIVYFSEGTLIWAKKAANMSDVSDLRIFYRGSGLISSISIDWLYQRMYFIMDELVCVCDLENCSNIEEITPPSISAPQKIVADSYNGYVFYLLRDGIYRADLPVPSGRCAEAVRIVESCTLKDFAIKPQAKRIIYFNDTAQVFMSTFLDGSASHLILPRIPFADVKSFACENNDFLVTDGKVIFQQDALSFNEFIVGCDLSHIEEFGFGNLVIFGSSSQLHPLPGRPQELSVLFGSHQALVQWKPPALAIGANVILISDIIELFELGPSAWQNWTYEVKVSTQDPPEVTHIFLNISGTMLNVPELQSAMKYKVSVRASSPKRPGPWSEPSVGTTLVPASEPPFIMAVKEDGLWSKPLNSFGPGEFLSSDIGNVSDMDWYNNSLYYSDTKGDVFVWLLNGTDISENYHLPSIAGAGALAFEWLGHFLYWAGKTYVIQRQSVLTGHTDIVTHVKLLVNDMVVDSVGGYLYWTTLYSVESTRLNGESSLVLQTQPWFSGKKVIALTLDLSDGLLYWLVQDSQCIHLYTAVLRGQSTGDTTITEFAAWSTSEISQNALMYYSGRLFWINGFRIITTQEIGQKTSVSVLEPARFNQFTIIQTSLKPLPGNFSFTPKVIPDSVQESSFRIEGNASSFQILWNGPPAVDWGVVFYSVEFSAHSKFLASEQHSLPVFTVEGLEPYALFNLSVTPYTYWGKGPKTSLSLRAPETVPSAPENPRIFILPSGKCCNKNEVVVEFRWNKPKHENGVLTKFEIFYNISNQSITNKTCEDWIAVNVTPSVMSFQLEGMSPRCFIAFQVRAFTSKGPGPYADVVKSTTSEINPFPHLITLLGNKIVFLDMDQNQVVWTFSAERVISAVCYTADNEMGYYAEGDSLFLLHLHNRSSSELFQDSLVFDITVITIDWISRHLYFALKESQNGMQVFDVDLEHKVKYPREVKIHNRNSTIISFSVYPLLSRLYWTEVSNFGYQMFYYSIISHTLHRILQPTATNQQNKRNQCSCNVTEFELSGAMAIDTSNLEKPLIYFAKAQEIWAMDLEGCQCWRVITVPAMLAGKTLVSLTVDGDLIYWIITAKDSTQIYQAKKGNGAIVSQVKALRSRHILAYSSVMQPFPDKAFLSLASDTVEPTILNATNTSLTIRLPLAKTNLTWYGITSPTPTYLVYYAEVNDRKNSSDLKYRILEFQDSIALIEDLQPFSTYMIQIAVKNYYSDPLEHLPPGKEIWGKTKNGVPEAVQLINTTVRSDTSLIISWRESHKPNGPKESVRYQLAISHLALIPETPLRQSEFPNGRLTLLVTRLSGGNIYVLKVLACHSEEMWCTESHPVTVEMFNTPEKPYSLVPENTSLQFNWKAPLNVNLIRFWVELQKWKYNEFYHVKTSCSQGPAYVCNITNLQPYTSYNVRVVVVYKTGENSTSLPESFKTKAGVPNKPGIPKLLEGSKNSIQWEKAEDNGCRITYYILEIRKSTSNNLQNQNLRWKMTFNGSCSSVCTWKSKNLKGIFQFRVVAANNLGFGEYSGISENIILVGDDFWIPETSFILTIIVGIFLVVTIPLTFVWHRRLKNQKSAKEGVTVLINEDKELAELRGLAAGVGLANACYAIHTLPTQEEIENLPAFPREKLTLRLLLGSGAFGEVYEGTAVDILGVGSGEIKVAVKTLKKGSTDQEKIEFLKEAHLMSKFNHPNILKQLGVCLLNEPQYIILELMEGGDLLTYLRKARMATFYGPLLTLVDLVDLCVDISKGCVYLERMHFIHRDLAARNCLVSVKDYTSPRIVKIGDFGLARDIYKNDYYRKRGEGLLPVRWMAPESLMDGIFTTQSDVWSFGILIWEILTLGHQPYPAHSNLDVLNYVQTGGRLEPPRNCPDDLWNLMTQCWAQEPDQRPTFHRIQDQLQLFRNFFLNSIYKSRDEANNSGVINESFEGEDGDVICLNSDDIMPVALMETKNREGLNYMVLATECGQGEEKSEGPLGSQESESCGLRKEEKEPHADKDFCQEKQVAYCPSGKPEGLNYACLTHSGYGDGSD
T2 sequence (Q16288 whole entry G623R, the tested form may be a part): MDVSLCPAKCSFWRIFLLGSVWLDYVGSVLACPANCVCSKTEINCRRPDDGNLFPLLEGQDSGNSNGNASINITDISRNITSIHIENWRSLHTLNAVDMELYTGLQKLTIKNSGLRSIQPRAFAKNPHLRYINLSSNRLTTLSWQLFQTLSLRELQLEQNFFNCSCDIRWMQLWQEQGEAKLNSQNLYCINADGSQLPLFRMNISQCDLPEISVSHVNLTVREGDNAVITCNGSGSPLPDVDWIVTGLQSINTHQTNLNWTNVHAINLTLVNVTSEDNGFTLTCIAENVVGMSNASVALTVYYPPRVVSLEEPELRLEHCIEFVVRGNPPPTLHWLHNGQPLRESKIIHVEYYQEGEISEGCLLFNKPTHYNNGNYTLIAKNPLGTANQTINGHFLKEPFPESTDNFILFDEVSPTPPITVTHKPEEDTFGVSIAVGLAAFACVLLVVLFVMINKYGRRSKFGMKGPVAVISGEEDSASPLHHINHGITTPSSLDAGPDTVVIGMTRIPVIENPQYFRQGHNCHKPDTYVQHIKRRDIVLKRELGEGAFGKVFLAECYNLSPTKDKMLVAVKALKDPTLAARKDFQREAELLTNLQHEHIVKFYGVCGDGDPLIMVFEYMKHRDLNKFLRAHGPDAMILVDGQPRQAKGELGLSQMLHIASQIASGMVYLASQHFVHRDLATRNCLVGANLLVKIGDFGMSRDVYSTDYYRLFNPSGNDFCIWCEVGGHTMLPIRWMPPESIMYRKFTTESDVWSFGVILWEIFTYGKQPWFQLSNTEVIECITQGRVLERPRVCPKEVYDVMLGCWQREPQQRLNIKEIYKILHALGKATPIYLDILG

O=C(Nc1cnn2ccc(N3CCC[C@@H]3c3cc(F)ccc3F)nc12)N1CC[C@H](O)C1 [LOXO-101, larotrectinib, reference compound] gave a GI50 [1] greater than 1000 nM, a GI50 [2] of 394 nM and a Tumor volume ([3]; Day 0, 60 mg/kg qd) of 303.89 ± 50.02 mm^3. It also gave a Tumor volume ([3]; Day 3, 60 mg/kg qd) of 510.07 ± 224.94 mm^3, a Tumor volume ([3]; Day 5, 60 mg/kg qd) of 490.32 ± 170.06 mm^3 and a Tumor volume ([3]; Day 7, 60 mg/kg qd) of 731.42 ± 372.59 mm^3. The Tumor volume ([3]; Day 9, 60 mg/kg qd) was 1289.62 ± 757.75 mm^3, the Tumor volume ([3]; Day 11, 60 mg/kg qd) was 1361.88 ± 710.90 mm^3 and the “TGI (tumor growth inhibition rate)” value ([3]; 60 mg/kg qd) was 63.87%. The “Tumor inhibition rate (by tumor weight)” value ([3]; 60 mg/kg qd) was 63.49%, the Tumor weight ([3]; 60 mg/kg qd) was 0.64 ± 0.44 g and the Tumor volume ([4]; Day 0, 60 mg/kg qd) was 200.39 ± 31.65 mm^3. For the same compound, the Tumor volume ([4]; Day 3, 60 mg/kg qd) was 552.34 ± 219.25 mm^3, the Tumor volume ([4]; Day 5, 60 mg/kg qd) was 1025.59 ± 347.93 mm^3 and the Tumor volume ([4]; Day 7, 60 mg/kg qd) was 1349.08 ± 541.06 mm^3. For the same compound, the Tumor volume ([4]; Day 9, 60 mg/kg qd) was 1822.21 ± 755.31 mm^3, the Tumor volume ([4]; Day 11, 60 mg/kg qd) was 2375.84 ± 852.18 mm^3 and the “TGI (tumor growth inhibition rate)” value ([4]; 60 mg/kg qd) was 31.65%. The “Tumor inhibition rate (by tumor weight)” value ([4]; 60 mg/kg qd) was 25.27% and the Tumor weight ([4]; 60 mg/kg qd) was 1.28 ± 0.62 g.
With C[C@@H]1CCc2ncc(F)cc2[C@H]2CCCN2c2ccn3ncc(c3n2)C(=O)N1 [LOXO-195, reference compound] the GI50 [1] was 36.7 nM, the GI50 [2] was 2.7 nM and the Tumor volume ([3]; Day 0, 100 mg/kg bid) was 303.85 ± 42.83 mm^3. For the same compound, the Tumor volume ([3]; Day 3, 100 mg/kg bid) was 351.06 ± 144.65 mm^3, the Tumor volume ([3]; Day 5, 100 mg/kg bid) was 216.92 ± 62.19 mm^3 and the Tumor volume ([3]; Day 7, 100 mg/kg bid) was 174.13 ± 102.49 mm^3. The Tumor volume ([3]; Day 9, 100 mg/kg bid) was 206.69 ± 107.53 mm^3, the Tumor volume ([3]; Day 11, 100 mg/kg bid) was 196.07 ± 88.87 mm^3 and the “TGI (tumor growth inhibition rate)” value ([3]; 100 mg/kg bid) was 94.80%. The “Tumor inhibition rate (by tumor weight)” value ([3]; 100 mg/kg bid) was 94.86%, the Tumor weight ([3]; 100 mg/kg bid) was 0.09 ± 0.07 g and the Tumor volume ([4]; Day 0, 100 mg/kg bid) was 200.27 ± 30.38 mm^3. It also gave a Tumor volume ([4]; Day 3, 100 mg/kg bid) of 282.91 ± 82.61 mm^3, a Tumor volume ([4]; Day 5, 100 mg/kg bid) of 306.00 ± 115.66 mm^3 and a Tumor volume ([4]; Day 7, 100 mg/kg bid) of 364.50 ± 212.47 mm^3. For the same compound, the Tumor volume ([4]; Day 9, 100 mg/kg bid) was 334.53 ± 184.22 mm^3, the Tumor volume ([4]; Day 11, 100 mg/kg bid) was 345.18 ± 306.01 mm^3 and the “TGI (tumor growth inhibition rate)” value ([4]; 100 mg/kg bid) was 90.07%. For the same compound, the “Tumor inhibition rate (by tumor weight)” value ([4]; 100 mg/kg bid) was 91.50% and the Tumor weight ([4]; 100 mg/kg bid) was 0.15 ± 0.14 g.
